Test results published in article PMC7572570 (Clinical cancer research : an official journal of the …, 2020).
Values joined by “and” are separate entries in the source; they are usually repeats but may differ in a detail not shown here. Identical values can stand only once. Like-named read-outs stand apart in the source and are kept apart here.

Legend:
[1] = test system: select advanced solid tumors or hematologic malignancies; test: Treatment duration and antitumor activity; type: in vivo, human; conditions: all cohorts, heavily pre-treated population with liver dysfunction
[2] = population PK analysis in patients with CTCL and PTCL; cited from earlier work
[3] = Safety, dose-limiting toxicity and treatment-emergent adverse events
[4] = in vivo
[5] = clinical; conditions: human, plasma
[6] = Severe (D) n=6, 5 mg/m^2, treatment-related TEAE, Cycle 1
[7] = Total n=31, all cohorts, treatment-related TEAE, Cycle 1
[8] = mild hepatic impairment 14 mg/m^2 vs normal 14 mg/m^2
[9] = moderate hepatic impairment 7 mg/m^2 vs normal 14 mg/m^2
[10] = patients who did not experience a DLT
[11] = severe hepatic impairment 5 mg/m^2 vs normal 14 mg/m^2
[12] = the two patients who had DLTs (individual values)

## C/C=C1\NC(=O)[C@H]2CSSCC/C=C/[C@H](CC(=O)N[C@H](C(C)C)C(=O)N2)OC(=O)[C@H](C(C)C)NC1=O [romidepsin]
[1]
  stable disease as best clinical response: 12 patients
[2]
  effect of mild hepatic impairment on exposure: no effect on romidepsin exposure
[3]; [6]
  Flu-like symptoms (malaise), Any Grade: 1 (17%) n (%)
  Infections, Any Grade: 1 (17%) n (%)
[3]; [7]
  Flu-like symptoms (malaise), Any Grade: 3 (10%) n (%)
  Infections, Any Grade: 4 (13%) n (%)
  Infections, Grade 3 or 4: 1 (3%) n (%)
[3]; all cohorts, n
  subjects who discontinued before the end of Cycle 1 due to death: 5
48 hours after initiation of the infusion
  plasma concentrations at last time point: still quantifiable at the 48-hour time point
Mild Cohort B, 14 mg/m^2 IV, geometric mean ± SD
  T1/2 (terminal half-life): 13.55±1.41 (7) hr
Compared to the normal hepatic function cohort
  change of clearance with hepatic function: clearance decreased with worsening hepatic function
[8]
  geometric mean AUCINF as % of normal hepatic function cohort: ~144%
  geometric mean Cmax as % of normal hepatic function cohort: approximately 115%
[9]
  geometric mean AUCINF as % of normal hepatic function cohort: 114%
  geometric mean Cmax as % of normal hepatic function cohort: 96%
[10]
  dose-normalized AUCINF (AUCINF/D), range: 29.9 to 507.4 ng·h/mL/mg
  dose-normalized Cmax (Cmax/D), range: 7.3 to 84.6 ng/mL/mg
Post infusion initiation (first sample collected), 4-hour IV infusion
  time at which plasma concentrations reached a plateau: approximately 1 hour
[11]
  geometric mean AUCINF as % of normal hepatic function cohort: 116%
  geometric mean Cmax as % of normal hepatic function cohort: approximately 95%
[12]
  clearance: 6.8 L/h
  dose-normalized AUCINF (AUCINF/D): 192.4 ng·h/mL/mg and 146.6 ng·h/mL/mg
  dose-normalized Cmax (Cmax/D): 32.1 ng/mL/mg and 40.5 ng/mL/mg
[4]; human
  Alkaline phosphatase increased, Any Grade: 1 (3%) n (%)
  Anorexia, Any Grade: 11 (35%) n (%)
  ECG changes (QT, ST-T changes), number of patients: 4
  ECG changes (QT, ST-T changes), patients: 23%
[4]; human, 28 day
  Aspartate aminotransferase increased, Any Grade: 1 (3%) n (%)
  Asthenia, Any Grade: 3 (10%) n (%)
  Bradycardia, Any Grade: 1 (3%) n (%)
  Creatinine increased, Any Grade: 2 (6%) n (%)
  aPTT increased, Any Grade: 1 (3%) n (%)
  decreased white blood cell counts, all grade treatment-emergent adverse event: 55%
  subjects who discontinued before the end of Cycle 1 due to an adverse event: 3
  vomiting, all grade treatment-emergent adverse event: 42%
[4]; human, 28 days
  Abdominal distension, Any Grade: 1 (3%) n (%)
  Abdominal pain, Any Grade: 1 (3%) n (%)
  Anemia, Any Grade: 9 (29%) n (%)
  Anemia, Grade 3 or 4: 1 (3%) n (%)
  Diarrhea, Any Grade: 2 (6%) n (%)
  Dizziness, Any Grade: 2 (6%) n (%)
  Dry mouth, Any Grade: 1 (3%) n (%)
  Dry skin, Any Grade: 1 (3%) n (%)
  Dysgeusia, Any Grade: 3 (10%) n (%)
  Dyspepsia, Any Grade: 1 (3%) n (%)
  Fatigue, Any Grade: 13 (42%) n (%)
  Fatigue, Grade 3 or 4: 2 (6%) n (%)
  Gastric haemorrhage, Any Grade: 1 (3%) n (%)
  Gastric haemorrhage, Grade 3 or 4: 1 (3%) n (%)
  Generalized pain, Any Grade: 1 (3%) n (%)
  Glossodynia, Any Grade: 1 (3%) n (%)
  Headache, Any Grade: 4 (13%) n (%)
  Hypercalcemia, Any Grade: 1 (3%) n (%)
  Hyperuricemia, Any Grade: 1 (3%) n (%)
  Hypoalbuminemia, Any Grade: 3 (10%) n (%)
  Hypocalcemia, Any Grade: 1 (3%) n (%)
  Hypoglycemia, Any Grade: 1 (3%) n (%)
  Hypokalemia, Any Grade: 1 (3%) n (%)
  Hypomagnesmia, Any Grade: 1 (3%) n (%)
  Hyponatremia, Any Grade: 4 (13%) n (%)
  Hypotension, Any Grade: 1 (3%) n (%)
  Hypotension, Grade 3 or 4: 1 (3%) n (%)
  Muscle cramping, Any Grade: 1 (3%) n (%)
  Nausea, Any Grade: 21 (68%) n (%)
  Nausea, Grade 3 or 4: 2 (6%) n (%)
  Peripheral neuropathy, Any Grade: 2 (6%) n (%)
  Photophobia, Any Grade: 1 (3%) n (%)
  QTc prolongation, Any Grade: 7 (23%) n (%)
  Tachycardia, Any Grade: 2 (6%) n (%)
  Thrombocytopenia, Any Grade: 16 (52%) n (%)
  Thrombocytopenia, Grade 3 or 4: 1 (3%) n (%)
  Vomiting, Any Grade: 13 (42%) n (%)
  WBC decrease, Any Grade: 17 (55%) n (%)
  WBC decrease, Grade 3 or 4: 7 (23%) n (%)
  Weight loss, Any Grade: 1 (3%) n (%)
[4]
  Torsades de Pointes or other treatment-emergent arrhythmia: no cases of Torsades de Pointes or other treatment-emergent arrhythmia
  dose-limiting toxicity: without DLT
  dose-limiting toxicity, patients: two patients
[5]; intravenous, clearance, range, patients who did not experience a DLT
  clearance: 33.3 to 557 mL/min
[5]; iv, 5 mg/m2
  half-life: 871 ± 255 min
[5]; iv, 5 mg/m2, Cl (systemic clearance), Severe Cohort D, 5 mg/m^2 IV, geometric mean ± SD
  clearance: 80 mL/min
[5]; iv, 5 mg/m2, V (volume of distribution), Severe Cohort D, 5 mg/m^2 IV, geometric mean ± SD
  Vd: 15.4 ± 5.1 L
[5]; iv, 7 mg/m2
  half-life: 845 ± 233 min
[5]; iv, 7 mg/m2, Cl (systemic clearance), Moderate Cohort C, 7 mg/m^2 IV, geometric mean ± SD
  clearance: 115 mL/min
[5]; iv, 7 mg/m2, V (volume of distribution), Moderate Cohort C, 7 mg/m^2 IV, geometric mean ± SD
  Vd: 19 ± 6.4 L
[5]; iv, 14 mg/m2
  half-life: 668 ± 126 min
[5]; iv, 14 mg/m2, Cl (systemic clearance), Mild Cohort B, 14 mg/m^2 IV, geometric mean ± SD
  clearance: 160 mL/min
[5]; iv, 14 mg/m2, Cl (systemic clearance), Normal Cohort A, 14 mg/m^2 IV, geometric mean ± SD
  clearance: 270 mL/min
[5]; iv, 14 mg/m2, V (volume of distribution), Mild Cohort B, 14 mg/m^2 IV, geometric mean ± SD
  Vd: 17.1 ± 2.5 L
[5]; iv, 14 mg/m2, V (volume of distribution), Normal Cohort A, 14 mg/m^2 IV, geometric mean ± SD
  Vd: 20.7 ± 12.5 L
